In patent US20200121665A1, “PPAR GAMMA MODULATORS FOR TREATING CYSTIC DISEASES” (Indiana University Research and Technology Corporation, priority 2013, published 2020):
Like-named read-outs stand apart in the source and are kept apart here.

How the values were obtained:
PCK rat [1] = conditions: for Statistics (a): KW % BW, significance compared to control / Statistics (a): Kidney Weight (KW), significance compared to control / KW % BW / Kidney Weight (KW) / LW % BW / Liver % Fibrocystic / Liver Weight (LW): 24 weeks
Source text: PCK rat animal model of slowly-progressing PKD. The PCK rat is an animal model that has a orthologous genetic mutation to the human autosomal recessive polycystic kidney disease (ARPKD), but has the phenotypic characteristics of human ADPKD, including renal and liver fibrocystic disease. The Pck gene of the rat is an orthologue to the PKHD-1 gene responsible for ARPKD. The animal model develops both kidney and liver fibrocystic diseases, and is slow progressing. […] Only females are used in the study.
Briefly, after weaning, test animals are fed a diet containing increasing doses of a PPARγ modulator, normalized to body weight, and compared to untreated control fed normal diet. A hematocrit is measured to assess the presence or absence of fluid retention. […] The untreated control group fed the same diet without any PPARγ modulators.
Animals are sacrificed and total body weight is recorded. Total kidney weight is recorded, total liver weight is recorded, and heart weight is recorded. Blood is collected via cardiac puncture, and serum and plasma samples are collected. The liver and kidney were embedded in paraffin and transversely sectioned and stained with hematoxylin, and eosin. The percent kidney weight to body weight was calculated. After histology on the kidney, renal cyst volume was determined through point count stereology methods. From the total liver weight, the percent liver to body weight was calculated. Following histology and picrosiruis red staining, the percent fibrosis can be determined through point count stereology methods. Heart weight is determined and the percent heart weight to body weight is calculated to assess heart disease, such as due to fluid retention, a reported side effect associated with PPARγ agonist treatment. Hearts are preserved in 4% paraformaldehyde. Liver enzymes, glucose levels, and ion levels are evaluated using the blood and urine samples.

PCK rat [2] = conditions: 14 week study, 20 mg/kg BW; cited from earlier work

Question: With `CN(CCOc1ccc(CC2SC(=O)NC2=O)cc1)c1ccccn1` (centres unmarked) [Rosiglitazone, rosiglitazone] as the compound, how does the “Statistics (a): KW % BW, significance compared to control” value (PCK rat [1]; 0.04 mg/kg BW diet) read?
Answer: S

Question: And the “Statistics (a): Kidney Weight (KW), significance compared to control” value (PCK rat [1]; 0.04 mg/kg BW diet)?
Answer: S

Question: And the “KW % BW” value (PCK rat [1]; 0.04 mg/kg BW diet, n = 8)?
Answer: 0.95 ± 0.15%

Question: And the “Kidney Weight (KW)” value (PCK rat [1]; 0.04 mg/kg BW diet, n = 8)?
Answer: 3.68 ± 0.14 g

Question: And the “LW % BW” value (PCK rat [1]; 0.04 mg/kg BW diet, n = 8)?
Answer: 7.11 ± 0.27%

Question: What about the “Liver % Fibrocystic” value (PCK rat [1]; 0.04 mg/kg BW diet, n = 8) of the same compound?
Answer: 35.36 ± 3.74%

Question: What about the “Liver Weight (LW)” value (PCK rat [1]; 0.04 mg/kg BW diet, n = 8) of the same compound?
Answer: 24.23 ± 0.10 g

Question: And the “KW % BW” value (PCK rat [1]; 0.4 mg/kg BW diet, n = 8)?
Answer: 1.27 ± 0.08%

Question: And the “Kidney Weight (KW)” value (PCK rat [1]; 0.4 mg/kg BW diet, n = 8)?
Answer: 4.27 ± 0.22 g

Question: And the “LW % BW” value (PCK rat [1]; 0.4 mg/kg BW diet, n = 8)?
Answer: 6.50 ± 0.57%

Question: And the “Liver % Fibrocystic” value (PCK rat [1]; 0.4 mg/kg BW diet, n = 8)?
Answer: 36.81 ± 3.61%

Question: And the “Liver Weight (LW)” value (PCK rat [1]; 0.4 mg/kg BW diet, n = 8)?
Answer: 22.05 ± 2.07 g

Question: And the “Statistics (a): KW % BW, significance compared to control” value (PCK rat [1]; 4.0 mg/kg BW diet)?
Answer: S

Question: What about the “Statistics (a): Kidney Weight (KW), significance compared to control” value (PCK rat [1]; 4.0 mg/kg BW diet) of the same compound?
Answer: S

Question: What about the “KW % BW” value (PCK rat [1]; 4.0 mg/kg BW diet, n = 3) of the same compound?
Answer: 0.94 ± 0.06%

Question: What about the “Kidney Weight (KW)” value (PCK rat [1]; 4.0 mg/kg BW diet, n = 3) of the same compound?
Answer: 3.56 ± 0.26 g

Question: And the “LW % BW” value (PCK rat [1]; 4.0 mg/kg BW diet, n = 3)?
Answer: 5.97 ± 1.38%

Question: And the “Liver % Fibrocystic” value (PCK rat [1]; 4.0 mg/kg BW diet, n = 3)?
Answer: 36.17 ± 0.38%

Question: What about the “Liver Weight (LW)” value (PCK rat [1]; 4.0 mg/kg BW diet, n = 3) of the same compound?
Answer: 22.66 ± 5.39 g

Question: What about the serum electrolytes (PCK rat [1]; at any concentration) of the same compound?
Answer: not altered

Question: And the “test animals died or had to be sacrificed during treatment due to cholangitis” value (PCK rat [1]; high dose group)?
Answer: 9/12

Question: And the glucose (PCK rat [1]; rat, in vivo)?
Answer: not observed

Question: What about the “hematocrits vs control animals” value (PCK rat [1]; rat, in vivo) of the same compound?
Answer: not different from the control animals

Question: And the “side effects (increased body weight or cholangitis)” value (PCK rat [1]; rat, in vivo)?
Answer: no detected side effects

Question: What does the source list for `CCc1ccc(CCOc2ccc(CC3SC(=O)NC3=O)cc2)nc1` (centres unmarked) [pioglitazone]?
Answer: kidney function by serum analysis (PCK rat [2]): well-preserved kidney function; liver enzymes by serum analysis (PCK rat [2]): increased
